Results from paper PMC10096449, “Anti-SARS-CoV-2 Activity and Cytotoxicity of Amaryllidaceae Alkaloids from Hymenocallis littoralis” (Molecules, 2023).
Where two headings read alike, the source gives them in different places.

Experiments:
in vitro = settings: African green monkey
SARS-CoV-2 [1] = experiment: microbe, parasite or virus in culture; assay type: cell-based, SARS-CoV-2 isolate BetaCov/Belgium/GHB-03021/2020; settings: for EC50: read-out: EC50 (anti-SARS-CoV-2 activity); for IC50: Severe acute respiratory syndrome coronavirus 2
Vero-E6 cells = settings: for CC50: single experiment (duplicate experiments listed)
[2] = parameters: method as in Zhang et al. [31]; settings: ref Zhang et al. [31]; cited from earlier work
Huh-7 = test system: Huh-7; parameters: method as in Ren et al. [33]; settings: ref Ren et al. [33]; cited from earlier work
SARS-CoV-2 [3] = test system: SARS-CoV-2; parameters: method as in Zhang et al. [31]; settings: RT-PCR read-out after 18–24 h; ref Zhang et al. [31]; read-out: EC50 (anti-SARS-CoV-2 activity); cited from earlier work
SARS-CoV-2 [4] = test system: SARS-CoV-2; parameters: method as in Ren et al. [33]; settings: in the Vero-E6 cell; ref Ren et al. [33]; read-out: EC50 (anti-SARS-CoV-2 activity); cited from earlier work
Vero-E6 = test system: Vero-E6; parameters: method as in Ren et al. [33]; settings: ref Ren et al. [33]; cited from earlier work
SARS-CoV-2 [5] = test system: SARS-CoV-2; parameters: method as in Jin et al. [32]; settings: in Vero cells; ref Jin et al. [32]; read-out: EC50 (anti-SARS-CoV-2 activity); cited from earlier work
HEK293 = test system: HEK293; parameters: method as in Jin et al. [32]; settings: on HEK293; ref Jin et al. [32]; cited from earlier work
HEK293T = test system: HEK293T; parameters: method as in Ren et al. [33]; settings: ref Ren et al. [33]; cited from earlier work
[6] = CC50 (cytotoxicity on Vero-E6 cells), MTS-assay, absence of virus
[7] = CC50 (µM), single experiment (duplicate experiments listed), Vero-E6 cells
[8] = av. CC50 (µM), average of two experiments, Vero-E6 cells
[9] = Severe acute respiratory syndrome coronavirus 2, 96 h

COc1cc2c(cc1O)[C@@H]1[C@H](O)[C@H](O)C=C3CCN(C2)[C@H]31 (racemic) [Compounds 2 and 3, (±)-2-epi-pseudolycorine]
CC50 (in vitro; [6]): > 100 µM | CC50 (in vitro; [7]): > 100 µM | CC50 (in vitro; [8]): > 100 µM | antiviral activity against SARS-CoV-2 (in words) (SARS-CoV-2 [1]): loss of the antiviral activity | EC50 (SARS-CoV-2 [1]; [9]): > 100 µM | IC50 (SARS-CoV-2 [1]; read-out: IC50): > 100 µM | IC50 (SARS-CoV-2 [1]; read-out: av. IC50): > 100 µM

COc1cc2c(cc1O)C1C(O)C(O)C=C3CCN(C2)C31 (single isomer, unassigned; (+)) [Compound 3, (+)-2-epi-pseudolycorine]
cytotoxicity on Vero-E6 cells (in words) (Vero-E6 cells): lacked antiviral activity, as well as cytotoxicity | antiviral activity against SARS-CoV-2 (in words) (SARS-CoV-2 [1]): lacked antiviral activity

Oc1ccc2c3c1OC1CC(O)CCC31CCNC2 (stereo not drawn) [Compound 1, O-demethyl-norlycoramine]
CC50 (in vitro; [6]): > 100 µM | CC50 (in vitro; [7]): > 100 µM | CC50 (in vitro; [8]): > 100 µM | EC50 (SARS-CoV-2 [1]; [9]): 45 µM | IC50 (SARS-CoV-2 [1]; read-out: IC50): 54 µM | IC50 (SARS-CoV-2 [1]; read-out: av. IC50): 45.8 µM

COc1cc2c(cc1O)[C@@H]1[C@H](O)[C@H](O)C=C3CCN(C2)[C@H]31 [Compound 2, (−)-2-epi-pseudolycorine]
cytotoxicity on Vero-E6 cells (in words) (Vero-E6 cells): lacked antiviral activity, as well as cytotoxicity | antiviral activity against SARS-CoV-2 (in words) (SARS-CoV-2 [1]): lacked antiviral activity

COc1cc2c(c(O)c1OC)[C@]13CC[C@H](OC)C[C@H]1N(CC3)[C@@H]2O [Compound 4, 6α-hydroxyhippeastidine]
CC50 (in vitro; [6]): > 100 µM | EC50 (SARS-CoV-2 [1]; [9]): 44 µM

COc1cc2c(c(O)c1OC)[C@]13CC[C@H](OC)C[C@H]1N(CC3)[C@H]2O [Compound 5, 6β-hydroxyhippeastidine]
CC50 (in vitro; [6]): > 100 µM | EC50 (SARS-CoV-2 [1]; [9]): 44 µM

O[C@H]1[C@H]2c3cc4c(cc3CN3CCC(=C[C@@H]1O)[C@H]23)OCO4 [Compound 6, lycorine]
CC50 [2]: > 40 µM | CC50 (in vitro; [6]): 1.2 µM | CC50 (in vitro; [7]): 1.28 µM | CC50 (in vitro; [8]): 1.21 µM | CC50 (Huh-7): 0.834 ± 0.063 µM | EC50 (SARS-CoV-2 [3]): 0.18 µM | EC50 (SARS-CoV-2 [4]): 0.439 ± 0.122 µM | CC50 (Vero-E6): > 1000 µM | EC50 (SARS-CoV-2 [5]): 0.878 ± 0.022 µM | CC50 (HEK293): > 10 µM | CC50 (HEK293T): 1.04 ± 0.0734 µM | CC50 (Vero-E6 cells): 1.14 µM | antiviral activity against SARS-CoV-2 (in words) (SARS-CoV-2 [1]): lacked selective antiviral activity | EC50 (SARS-CoV-2 [1]; [9]): > 100 µM | IC50 (SARS-CoV-2 [1]; read-out: IC50): > 100 µM | IC50 (SARS-CoV-2 [1]; read-out: av. IC50): > 100 µM

O[C@H]1[C@H]2c3cc4c(cc3CN3CCC(=C[C@H]1O)[C@H]23)OCO4 [Compound 7, 2-epi-lycorine]
CC50 (in vitro; [6]): > 100 µM | CC50 (in vitro; [7]): > 100 µM | CC50 (in vitro; [8]): > 100 µM | EC50 (SARS-CoV-2 [1]; [9]): 54 µM | IC50 (SARS-CoV-2 [1]; read-out: IC50): 69.3 µM | IC50 (SARS-CoV-2 [1]; read-out: av. IC50): 54.2 µM

O[C@H]1[C@H]2c3cc4c(cc3CN3CCC(C[C@H]1O)[C@H]23)OCO4 (stereo partly drawn) [Compound 8, zephyranthine]
CC50 (in vitro; [6]): > 100 µM | CC50 (in vitro; [7]): > 100 µM | CC50 (in vitro; [8]): > 100 µM | EC50 (SARS-CoV-2 [1]; [9]): 40 to 77 µM | IC50 (SARS-CoV-2 [1]; read-out: IC50): 37.1 µM | IC50 (SARS-CoV-2 [1]; read-out: av. IC50): 39.6 µM | EC50 (SARS-CoV-2 [1]): 39 µM

[O-]c1cc2c3c(c1)c1cc4c(cc1c[n+]3CC2)OCO4 [Compound 9, ungeremine]
CC50 (in vitro; [6]): > 100 µM | CC50 (in vitro; [7]): > 100 µM | CC50 (in vitro; [8]): > 100 µM | cytotoxicity on Vero-E6 cells (in words) (Vero-E6 cells): lacked antiviral activity, as well as cytotoxicity | cytotoxicity on Vero-E6 cells (in words) (Vero-E6 cells; listed as ungeremine): eliminated cytotoxicity on the Vero-E6 cell line | antiviral activity against SARS-CoV-2 (in words) (SARS-CoV-2 [1]): lacked antiviral activity | EC50 (SARS-CoV-2 [1]; [9]): > 100 µM | IC50 (SARS-CoV-2 [1]; read-out: IC50): > 100 µM | IC50 (SARS-CoV-2 [1]; read-out: av. IC50): > 100 µM | antiviral activity against SARS-CoV-2 (in words) (SARS-CoV-2 [1]; listed as ungeremine): did not improve its anti-SARS-CoV-2 potency

O=C1N[C@H]2[C@H](O)[C@H](O)[C@@H](O)[C@H](O)[C@@H]2c2cc3c(c(O)c21)OCO3 [Compound 10, pancratistatin]
CC50 (in vitro; [6]): 0.13 µM | CC50 (in vitro; [7]): 0.14 µM | CC50 (Vero-E6 cells): 0.122 µM | antiviral activity against SARS-CoV-2 (in words) (SARS-CoV-2 [1]): lacked selective antiviral activity | IC50 (SARS-CoV-2 [1]; read-out: IC50): > 100 µM | IC50 (SARS-CoV-2 [1]; read-out: av. IC50): > 100 µM

COc1cc2c(cc1O)[C@@H](OC)O[C@@H]1CC=C3CCN(C)[C@H]3[C@H]21 [Compound 11, 9-O-demethyl-7-O-methyllycorenine]
CC50 (in vitro; [6]): > 100 µM | CC50 (in vitro; [7]): > 100 µM | CC50 (in vitro; [8]): > 100 µM | EC50 (SARS-CoV-2 [1]; [9]): 40 to 77 µM | IC50 (SARS-CoV-2 [1]; read-out: IC50): 99.4 µM | IC50 (SARS-CoV-2 [1]; read-out: av. IC50): 77.2 µM
